Experimental data reported in US4077981A, “Certain 1-alkyl-2-dichlorophenyliminopyrrolidines” (Bayer Aktiengesellschaft, priority 1968, dated 1978).

Assays:
Boophilus, Biarra strain = experiment: In-vitro test for ovicidal and adulticidal effect on ticks; design: species or system Boophilus microplus
Procedure: In-vitro test for ovicidal and adulticidal effect on ticks
The ovicidal effect is determined as stated in Example 1.
In addition, the adulticidal effectiveness of the preparation of the given active compound after 24 hours is determined by ascertaining the voluntary movement of limbs and bodies of the immersed adult ticks after stimulation with a fine needle compared with the voluntary movement of limbs and bodies of the untreated adult ticks. The effectiveness is stated in %, 100% meaning that no movements of any kind of the limbs and bodies were any longer detectable, and 0% signifying that the ticks moved limbs and bodies in normal manner.
The results below were obtained in a similar manner to those in accordance with Example 4.

[1] = system: Boophilus microplus, Biarra strain; experiment: In-vivo test against ticks on cattle; design: species or system Boophilus microplus (on cattle); conditions: 0.3%; for Total number of female adult ticks which reach development on the cattle: total 1-21 days
Procedure: In-vivo test against ticks on cattle
3 parts of the particular active compound are mixed with 7 parts of a mixture of equal parts by weight of ethyleneglycol monomethyl ether and nonylphenyl polyglycol ether. The emulsion concentrate so obtained is diluted with water to the application concentration desired in each case.
Cattle which have been infected (12 times at intervals of 2 days) with resistant larvae of ticks of the species Boophilus microplus, Biarra strain, are sprayed on the 24th day after the first infection with the preparation of the given active compound so obtained.
The effect of the preparation of the given active compound is determined by ascertaining the number of adult female ticks which have reached development on the treated cattle and later lay viable eggs. This number is compared with the number of adult femal ticks which have reached development on untreated cattle.
As a measure of the intensity of the infestation before treatment, there is used the number of adult females which reach development in the case of the treated and untreated animals in the last three days before the time of treatment.

[2] = system: Boophilus microplus, Biarra strain (resistant); experiment: In-vitro test for ovicidal effect on ticks (Biarra strain); conditions: Table 1b; for Ovicidal effect: 100% inhibition with the stated concentration of active compound: concentration giving 100% inhibition; for Ovicidal effect: >50% inhibition with the stated concentration of active compound: concentration giving >50% inhibition
Procedure: In-vitro Test for Ovicidal Effect on Ticks
The emulsion concentrate so obtained is diluted with water to the application concentration desired in each case.
After immersion of, in each case, 10 female specimens of the various strains of ticks, the individual ticks are transferred to plastic dishes, the bottom of each of which is covered with a disc of filter paper.

[3] = Table 4, concentration giving 50% inhibition
[4] = Table 4, concentration giving 100% inhibition
[5] = Table 5, concentration giving 50% inhibition
[6] = Table 5, concentration giving 100% inhibition
[7] = days before treatment -2 -1 0 (baseline)

| SMILES | Adulticidal and ovicidal effect: 50% inhibition with the stated concentration of active compound (Boophilus, Biarra strain; [3]) | Adulticidal and ovicidal effect: 100% inhibition with the stated concentration of active compound (Boophilus, Biarra strain; [4]) | Adulticidal and ovicidal effect: 50% inhibition with the stated concentration of active compound (Boophilus, Biarra strain; [5]) | Adulticidal and ovicidal effect: 100% inhibition with the stated concentration of active compound (Boophilus, Biarra strain; [6]) | also measured |
| --- | --- | --- | --- | --- | --- |
| C=CCN1CCCC1=Nc1ccc(Br)c(Br)c1 | 0.05 % by weight | 0.1 % by weight |  |  |  |
| CCCCN1CCCC1=Nc1ccc(F)c(Cl)c1 | 0.03 % by weight | 0.1 % by weight |  |  |  |
| CCCN1CCCC1=Nc1ccc(F)c(Cl)c1 | 0.03 % by weight | 0.1 % by weight |  |  |  |
| C=CCN1CCCC1=Nc1ccc(F)c(Cl)c1 | 0.08 % by weight | 0.1 % by weight |  |  |  |
| CCN1CCCC1=Nc1ccc(F)c(Cl)c1 | 0.1 % by weight | 0.3 % by weight |  |  |  |
| C=CCN1CCCC1=Nc1ccc(Cl)c(Br)c1 | 0.05 % by weight | 0.1 % by weight |  |  |  |
| CCCCN1CCCC1=Nc1ccc(Cl)c(Br)c1 | 0.03 % by weight | 0.1 % by weight |  |  |  |
| CCCN1CCCC1=Nc1ccc(Cl)c(Br)c1 | 0.1 % by weight | 0.3 % by weight |  |  |  |
| CCN1CCCC1=Nc1ccc(Cl)c(Br)c1 | 0.05 % by weight | 0.1 % by weight |  |  |  |
| CC=CCN1CCCC1=Nc1ccc(Cl)c(Cl)c1 | 0.03 % by weight | 0.01 % by weight |  |  |  |
| C=CCN1CCCC1=Nc1ccc(Cl)c(C)c1 | 0.02 % by weight | 0.03 % by weight |  |  |  |
| C=CCN1CCCC1=Nc1ccc(C)c(Cl)c1 | 0.01 % by weight | 0.03 % by weight |  |  |  |
| CC=CCN1CCCC1=Nc1cc(Cl)c(Cl)cc1Cl |  |  | 0.03 % by weight | 0.1 % by weight |  |
| CC=CCN1CCCC1=Nc1ccc(C)c(Cl)c1 |  |  | 0.008 % by weight | 0.1 % by weight |  |
| CC=CCN1CCCC1=Nc1ccc(Cl)c(C)c1 |  |  | 0.02 % by weight | 0.03 % by weight |  |
| CC=CCN1CCCC1=Nc1ccc(Cl)cc1C |  |  | 0.008 % by weight | 0.01 % by weight |  |

| SMILES | Adulticidal and ovicidal effect: 50% inhibition with the stated concentration of active compound (Boophilus, Biarra strain; [3]) | Adulticidal and ovicidal effect: 100% inhibition with the stated concentration of active compound (Boophilus, Biarra strain; [4]) | Adulticidal and ovicidal effect: 50% inhibition with the stated concentration of active compound (Boophilus, Biarra strain; [5]) | Adulticidal and ovicidal effect: 100% inhibition with the stated concentration of active compound (Boophilus, Biarra strain; [6]) | also measured |
| --- | --- | --- | --- | --- | --- |
| C=C(C)CN1CCCC1=Nc1ccc(Cl)c(Cl)c1 |  |  | 0.03 % by weight | 0.1 % by weight |  |
| C=C(C)CN1CCCC1=Nc1ccc(Cl)cc1Cl |  |  | 0.01 % by weight | 0.03 % by weight |  |
| C=C(C)CN1CCCC1=Nc1cc(Cl)c(Cl)cc1Cl |  |  | 0.1 % by weight | 0.3 % by weight |  |
| C=C(C)CN1CCCC1=Nc1ccc(Cl)cc1C |  |  | 0.02 % by weight | 0.03 % by weight |  |
| C=C(C)CN1CCCC1=Nc1ccc(C)c(Cl)c1 |  |  | 0.03 % by weight | 0.1 % by weight |  |
| C=C(C)CN1CCCC1=Nc1ccc(Cl)c(C)c1 |  |  | 0.01 % by weight | 0.1 % by weight |  |
| C=CCCN1CCCC1=Nc1ccc(Cl)c(Cl)c1 |  |  | 0.1 % by weight | 0.3 % by weight |  |
| C=CCCN1CCCC1=Nc1ccc(C)c(Cl)c1 |  |  | 0.02 % by weight | 0.03 % by weight |  |
| C=CCCN1CCCC1=Nc1ccc(Cl)cc1C |  |  | 0.008 % by weight | 0.01 % by weight |  |
| C=CCN1CCCC1=Nc1ccc(C)c(Br)c1 |  |  | 0.03 % by weight | 0.1 % by weight |  |
| CCCCN1CCCC1=Nc1ccc(C)c(Br)c1 |  |  | 0.02 % by weight | 0.03 % by weight |  |
| C=CCN1CCCC1=Nc1ccc(Br)c(C)c1 |  |  | 0.03 % by weight | 0.1 % by weight |  |
| CCCCN1CCCC1=Nc1ccc(Br)c(C)c1 |  |  | 0.05 % by weight | 0.1 % by weight |  |
| C=CCN1CCCC1=Nc1ccc(Cl)c(Cl)c1 [Compound 41] |  |  |  |  | Number of female adult ticks which reach development on the cattle ([1]; days after treatment +1+2+3): 0; Number of female adult ticks which reach development on the cattle ([1]; days after treatment +4+5+6): 0; Number of female adult ticks which reach development on the cattle ([1]; days after treatment +7+8+9): 7; Number of female adult ticks which reach development on the cattle ([1]; days after treatment +10+11+12): 6; Number of female adult ticks which reach development on the cattle ([1]; days after treatment +13+14+15): 4; Number of female adult ticks which reach development on the cattle ([1]; days after treatment +16+17+18): 0; Number of female adult ticks which reach development on the cattle ([1]; days after treatment +19+20+21): 0; Number of female adult ticks which reach development on the cattle [1, 7]: 262; Total number of female adult ticks which reach development on the cattle [1]: 17; Ovicidal effect: 100% inhibition with the stated concentration of active compound [2]: 0.03 % by weight; Ovicidal effect: >50% inhibition with the stated concentration of active compound [2]: 0.01 % by weight |
| CCCCN1CCCC1=Nc1ccc(Cl)c(Cl)c1 [Compound 71] |  |  |  |  | Number of female adult ticks which reach development on the cattle ([1]; days after treatment +1+2+3): 3; Number of female adult ticks which reach development on the cattle ([1]; days after treatment +4+5+6): 1; Number of female adult ticks which reach development on the cattle ([1]; days after treatment +7+8+9): 0; Number of female adult ticks which reach development on the cattle ([1]; days after treatment +10+11+12): 11; Number of female adult ticks which reach development on the cattle ([1]; days after treatment +13+14+15): 1; Number of female adult ticks which reach development on the cattle ([1]; days after treatment +16+17+18): 2; Number of female adult ticks which reach development on the cattle ([1]; days after treatment +19+20+21): 0; Number of female adult ticks which reach development on the cattle [1, 7]: 231; Total number of female adult ticks which reach development on the cattle [1]: 18; Ovicidal effect: 100% inhibition with the stated concentration of active compound [2]: 0.03 % by weight; Ovicidal effect: >50% inhibition with the stated concentration of active compound [2]: 0.01 % by weight |
